The results in this text go back to patent US20210046124A1, “HUMAN FUNCTIONAL CORNEAL ENDOTHELIAL CELL AND APPLICATION THEREOF” (KYOTO PREFECTURAL PUBLIC UNIVERSITY CORPORATION, priority 2016, published 2021).

“And” between values parts separate entries of the source, which are not always exact repeats. Equal values may be shown once. “Also recorded” adds a separate entry of the source. Where a name gives a salt, the structure may show the parent alone. Some results are limits rather than exact numbers.

Format in all cases: cell-based, human
For one experiment, the system named is cHCECs. Description: Phase contrast microscopy: morphology, cell area distribution, cultured cell density. An excerpt:
Phase contrast microscope images were taken by an inverted microscope system (CKX41, Olympus, Tokyo, Japan). For the cell area distribution analysis, the cHCECs were washed with PBS (−) three times and the phase contrast images were acquired by a BZ X-700 Microscope system (Keyence, Osaka, Japan). The cell area distributions were quantified by BZ-H3C Hybrid cell count software (Keyence).
Phase contrast images ware taken by an inverted microscope system (CKX41, Olympus, Tokyo, Japan). For the cell area distribution analysis, the cHCECs were washed with PBS (−) three times and phase contrast images were acquired by a BZ X700 Microscope system (Keyence, Osaka, Japan). The area distributions were quantified by BZ-H3C Hybrid cell count software (Keyence).

The test system of experiment [1] is cultured HCECs. Description: Flow cytometry (FACS) of surface CD markers CD44, CD166, CD24, CD26, CD105 of cultured HCECs; E-ratio. The conditions noted are these: for effect on the E-ratio: presence of the agent during culture. From the text: FIG. 68 is a diagram showing the method to estimate the content of effector (E-ratio) in a cultured cell population by FACS analysis. The gate is set as followings in measurements using PE-Cy7-labeled anti-human CD44 antibodies (BD Biosciences) and setting the Area Scaling Factor of Blue laser of FACS Canto II to 0.75 and voltage of PE-Cy7 to 495. First, fractions A, B, C, and D are set in the dot plot (top row left) where the X axis is CD24 and the Y axis is CD166. At this time, fraction A is CD24 negative and CD166 positive, fraction B is CD24 positive and CD166 positive, fraction C is CD24 negative and CD166 negative, and fraction D is CD24 positive and CD166 negative. The proportion of fraction B when target cells for analysis are 100% is considered the content of non-intended cell C [CD24 positive cell]. […] Further, a separate dot plot where the X axis is CD44 and the Y axis is CD26 is created and fractions a′, b′, c′, and d′ are set as in the diagram on the top row right side. The proportion of fraction B when the target cells of analysis is 100% is the non-intended cell B [CD26 positive cell] content.
Method of calculating the E-ratio: Typically, fluorescence intensities differ depending on the type of fluorescence of a label or equipment setting. In a measurement under the following condition: PE-Cy7-labeled anti-human CD44 antibody (BD Biosciences) is used and Area Scaling Factor of Blue laser of FACS Canto II is set to 0.75 and the voltage of PE-Cy 7 is set to 495, gates are set as follows: First, fractions A, B, C, and D are set in a dot plot (FIG. 68, top row left side) with X axis as CD24 and Y axis as CD166. At this time, fraction A is CD24 negative and CD166 positive, fraction B is CD24 positive and CD166 positive, fraction C is CD24 negative and CD166 negative, and fraction D is CD24 positive and CD166 negative. The proportion of fraction B, when target cells for analysis is 100%, is considered the content of non-intended cell C [CD24 positive cell]. […] Further, a separate dot plot where the X axis is CD44 and the Y axis is CD26 is created and fractions a′, b′, c′, and d′ are set as in the diagram on the top row right side of FIG. 68. The proportion of fraction B, when the target cell of analysis is 100%, is the non-intended cell B [CD26 positive cell] content (see FIG. 68).
HCECs were collected from the culture dish by TrypLE Select treatment as described above and suspended at a concentration of 4×10^6 cells/mL in FACS buffer (PBS containing 1% BSA and 0.05% NaN3). An equal volume of antibody solution was added and incubated for 2 hours at 4.degrees. C. The antibody solutions comprised the following: FITC-conjugated anti-human CD26 mAb, PE-conjugated anti-human CD166 mAb, PerCP-Cy5.5 conjugated anti-human CD24 mAb, PE-Cy7-conjugated anti-human CD44 (all from BD Biosciences), and APC-conjugated anti-human CD105 (eBioscience, San Diego, Calif., USA). After washing with FACS buffer, the HCECs were analyzed with FACS Canto II (BD Biosciences).
A general note: A flow cytometer gives signals particle by particle.

Another experiment relates to HCECs. Description: Trichostatin A (TSA) treatment of HCECs. The conditions noted are these: medium supplemented with 0.5 .micro.M Trichostatin A. How it is done:
HCECs with treated with Trichostatin A as follows. The Descemet's membranes with the corneal endothelial cells were stripped from donor corneas and digested at 37.degrees. C. with 1 mg/mL collagenase A (Roche Applied Science, Penzberg, Germany) for 2 hours. The HCECs obtained from a single donor cornea were seeded in one well of a Type I collagen-coated 6-well cell culture plate (Corning Inc., Corning, N.Y., USA). The Trichostatin A-containing medium was prepared with Opti-MEM-I (Life Technologies Corp., Carlsbad, Calif., USA), 8% fetal bovine serum (FBS), 5 ng/mL epidermal growth factor (EGF; Life Technologies), 20 .micro.g/mL ascorbic acid (Sigma-Aldrich Corp.), 200 mg/L calcium chloride (Sigma-Aldrich Corp., St. Louis, Mo., USA), 0.08% chondroitin sulfate (Wako Pure Chemical Industries, Ltd., Osaka, Japan), 50 .micro.g/mL of gentamicin, and 0.5 .micro.M of Trichostatin A. The HCECs were cultured using the Trichostatin A-containing medium at 37.degrees. C. in a humidified atmosphere containing 5% CO2. The culture medium was changed twice a week. The HCECs were subcultured at ratios of 1:3 using 10× TrypLE Select (Life Technologies) for 12 minutes at 37.degrees. C. when they reached confluence. The cells were cultured for 30 days. The HCECs from the second passage were used for observation with a fluorescence microscope.

Experiment [2] relates to cultured HCECs. Description: Centrifugation cell attachment assay: coated Descemet's membrane components and cell suspension vehicles. The conditions noted are these: for minimum concentration necessary for the observed cell binding: coating concentration; for binding / distribution of cultured HCECs in coated wells: U-bottomed 96-well plates coated with the component, 200×g for 2 minutes, Opti-MEM. How it is done: Cell attachment to laminins, […], proteoglycans and glycoprotein was tested by the centrifugation cell attachment assay described previously (Friedlander et al., 1998. J. Cell Biol. 107: p 2329) with some modifications. Laminin-521, -511, -411, and -332 were purchased from Veritas (Tokyo, Japan). Perlecan, Agrin, Nidogen-1, TSP-1 and Fibulin 5 were purchased from R&D Systems (Minneapolis, Minn.). Type IV collagen was purchased from BD Biosciences (San Jose, Calif., USA).
Each well of a U-shaped 96-well Maxisorp plate (Nunc) was coated with 40 .micro.l of laminin, collagen, proteoglycan or glycoprotein solution overnight at 4 degrees Celsius. The wells were washed three times with PBS (−) and blocked with 1% BSA in 0.1 M NaHCO3 (pH 8.0) for 1 hour at room temperature. The cultured HCECs were suspended in Opti-MEM, Opeguard-MA (Senju Pharmaceutical, Osaka, Japan) or BSS-Plus (Alcon Laboratories, Fort Worth, Tex., USA) at a concentration of 1×10^5 cells/mL, and 0.1 mL of the cell suspension was added to each well and incubated for 10 minutes. The plate was then centrifuged at 200×g for 2 minutes. The bright-field Z stack images were captured by a BZ-9000 microscope (Keyence, Osaka, Japan) at 2× objective magnification and omnifocal images were created from these images using BZ-II Analyzer software. In accordance with the description by Friedlander et al (Friedlander et al., 1998. J. Cell Biol. 107: p 2329), the cells were centrifuged into a pellet at the bottom of the well on non-adhesive substrates. As the adhesiveness of the substrate increased, more cells bound to the substrates along the wall of the well. Bond to the substrate is detected in a circular area with a measurable diameter at the bottom or the well. On strongly adhesive substrates, cells were distributed more or less uniformly on the well (Grumet M, Flaccus A, and Margolis R U. J. Cell Biol. 1993; 120:815-824).
As a method for assessing the attachment ability of HCECs, this Example performed a centrifugation cell attachment assay [Friedlander et al., 1998. J. Cell Biol. 107: p 2329] with some modification (FIG. 36). The cultured HCECs were detached from culture dishes as described in (Materials and Methods) and cell suspension was prepared at a concentration of 1×10^5 cells/ml. 100 .micro.l of the cell suspension was added to each well of the U-bottomed 96-well plates coated with laminin-511, laminin-411, Type IV collagen or other components of Descemet's membrane listed in Table 6. The plate was incubated for 10 minutes at room temperature and then centrifuged at 200×g for 2 minutes. The attached cells were assessed under a BZ-9000 microscope system as described in (Materials and Methods).

Setting [3] is: addition of Y-27632 during the culture for 47 days.

For the compound `C[C@@H](N)[C@H]1CC[C@H](C(=O)Nc2ccncc2)CC1` [Lot Y-27632, (R)-(+)-trans-(4-pyridyl)-4-(1-aminoethyl)-cyclohexanecarboxamide dihydrochloride monohydrate], the average cell area with cHCECs (setting [3]) was 216 .micro.m^2. The cultured cell density with cHCECs (setting [3]) stood at 2582 cells/mm^2. Besides, the E-ratios in the experiment with cultured HCECs [1] (Y-27632 added every three days throughout the entire culture period, TGF-beta signaling not inhibited, seeding density higher than 400 cells/mm^2) is recorded as no less than 90%. Also, the results for the “improvement (E-ratio, increase in the proportion of intermediately differentiated corneal endothelial cells)” value in the experiment with cultured HCECs [1] (about 1 .micro.M), in the experiment on cultured HCECs [1] (about 5 .micro.M) and with cultured HCECs [1] (about 10 .micro.M or more) were “very little improvement”, “little” and “More of an effect”, respectively. Further, the E-Ratio with cultured HCECs [1] (addition of Y-27632 throughout 35 days of culture, 6th passage) came out at 52.3%. For the same compound, the “effect on the E-ratio” value with cultured HCECs [1] is “further improved the E-ratio”.
`C[S+]([O-])c1ccc(-c2nc(-c3ccc(F)cc3)c(-c3ccncc3)[nH]2)cc1` (centres unmarked) [SB203580, 4-(4-fluorophenyl)-2-(4-methylsulfinylphenyl)-5-(4-pyridyl)-1H-imidazole]: the “senescent form of cHCEC cultures” value with cHCECs (inhibitor added to the entire culture, cultures a5, a1, a2) is given as “did not have any senescent form at first glance”.
For the compound `CC(/C=C/C(=O)NO)=C\[C@@H](C)C(=O)c1ccc(N(C)C)cc1` [Trichostatin A], the “effect on the E-ratio” value in the experiment with cultured HCECs [1] is “improved the E-ratio”. In addition, the “differentiation into mature cHCECs” value with HCECs is given as “can be promoted to differentiate into mature cHCECs”.
Regarding “Agrin: purchased from R&D Systems, Descemet's membrane component”, in the experiment on cultured HCECs [2], the “minimum concentration necessary for the observed cell binding” value (shortened to “minimum concentration necessary”) is given as 400 nM.
In the case of “Perlecan: purchased from R&D Systems, Descemet's membrane component”, in the experiment on cultured HCECs [2], the “minimum concentration necessary” value is 400 nM.
On the same count and under the same terms, the result for “TSP-1: purchased from R&D Systems, Descemet's membrane component” reads 400 nM.
For “laminin-332: laminin purchased from Veritas, coating protein”, in the experiment on cultured HCECs [2], the “binding / distribution of cultured HCECs in coated wells” value (from here on “binding / distribution”) is “formed a circular pellet”.
As for “laminin-411: laminin purchased from Veritas, coating protein”, in the experiment with cultured HCECs [2], the “binding / distribution” value is “formed a circular pellet”; the “minimum concentration necessary” value was 1.25 nM and 2.85 .micro.g/mL.
Turning to “laminin-511: laminin purchased from Veritas, coating protein”, in the experiment on cultured HCECs [2], the “binding / distribution” value is listed as “uniformly distributed; also recorded: concentration dependent manner”; the “minimum concentration necessary” value is 4 pM and 3 ng/mL.
Consider “laminin-521: laminin purchased from Veritas, coating protein”, for which the “binding / distribution” value with cultured HCECs [2] is given as “uniformly distributed; also recorded: concentration dependent manner”.
